Reference: DBAASP
In brackets after ≈: the same amount, converted by molar mass.

How the values were obtained:
Assay in all cases: ≥ marks a high value that may be exact or a test limit, other limits are often not marked, values filed in µg/mL are converted to µM
[1] = system: Streptococcus mutans
[2] = system: Staphylococcus aureus NCTC 8325
[3] = system: Escherichia coli ATCC 25922
[4] = system: Candida albicans ATCC 90028
[5] = system: Escherichia coli ATCC 11775
[6] = system: Pseudomonas aeruginosa ATCC 27853
[7] = system: Staphylococcus aureus ATCC 25923
[8] = system: Staphylococcus epidermidis
[9] = system: Pasteurella multocida
[10] = system: Listeria innocua
[11] = system: Escherichia coli
[12] = system: Staphylococcus aureus
[13] = system: Streptococcus uberis
[14] = system: Bacillus cereus
[15] = system: Leuconostoc lactis
[16] = system: Pseudomonas aeruginosa KCTC 1637
[17] = system: Salmonella typhimurium KCTC 1926
[18] = system: Staphylococcus epidermidis KCTC 1917
[19] = system: Bacillus subtilis KCTC 3068
[20] = system: Staphylococcus aureus KCTC 1621
[21] = system: Escherichia coli KCTC 1682
[22] = system: Escherichia coli ATCC 25726

How did the MIC [1] turn out when `CC[C@H](C)[C@H](NC(=O)[C@H](CCCN=C(N)N)NC(=O)[C@H](CCCCN)NC(=O)[C@H](CC(C)C)NC(=O)[C@H](C)NC(=O)[C@@H](N)CCCN=C(N)N)C(=O)N[C@@H](CCCCN)C(=O)N[C@@H](Cc1cnc[nH]1)C(=O)N[C@H](C(=O)N[C@@H](CC(C)C)C(=O)N[C@@H](CCCCN)C(=O)O)C(C)C` [RALKRIKHVLK] was run?
Its MIC is no less than 91.8 µM.

With `CC[C@H](C)[C@H](NC(=O)[C@H](CC(C)C)NC(=O)[C@H](CCCCN)NC(=O)[C@H](CCCCN)NC(=O)[C@@H](NC(=O)[C@H](C)NC(=O)[C@H](CCCCN)NC(=O)[C@@H](NC(=O)[C@H](C)NC(=O)[C@H](Cc1cnc[nH]1)NC(=O)[C@@H]1CCCN1C(=O)[C@@H](NC(=O)[C@H](CC(C)C)NC(=O)[C@@H]1CCCN1C(=O)[C@H](CCCCN)NC(=O)[C@@H](NC(=O)[C@H](Cc1ccc(O)cc1)NC(=O)[C@H](CCCCN)NC(=O)[C@H](CCSC)NC(=O)[C@H](Cc1ccccc1)NC(=O)CN)[C@@H](C)CC)[C@@H](C)CC)C(C)C)[C@@H](C)CC)C(=O)O` [GFMKYIKPLIPHAVKAIKKLI] as the compound, how does the MIC [2] read?
Its MIC is no less than 50 µM.

And the MIC [3]?
The MIC was 6.25 µM (≈ 15.1 µg/mL).

And the MIC [4]?
The MIC was no less than 200 µM.

Which MIC [2] does the source give for `CC[C@H](C)[C@@H]1NC(=O)[C@H](CCCCN)NC(=O)[C@@H](NC(=O)[C@H](CCCCN)NC(=O)[C@H](CC(C)C)NC(=O)[C@H](CCCCN)NC(=O)[C@H](CC(=O)O)NC(=O)[C@H](CC(C)C)NC(=O)[C@H](CCSC)NC(=O)[C@H](CO)NC(=O)[C@H](C)NC(=O)[C@H](C)NC(=O)[C@@H](NC(=O)[C@@H](NC(=O)[C@H](CCCCN)NC(=O)[C@H](C)NC(=O)[C@@H](NC(=O)CNC(=O)[C@H](CCCCN)NC(=O)[C@@H](NC(=O)[C@@H](NC(=O)[C@H](CC(=O)O)NC(=O)[C@H](CC(C)C)NC(=O)[C@H](CC(C)C)NC(=O)CN)[C@@H](C)O)[C@@H](C)CC)C(C)C)[C@@H](C)O)C(C)C)CSSC[C@@H](C(=O)O)NC(=O)CNC(=O)[C@H](CO)NC1=O` [GLLDTIKGVAKTVAASMLDKLKCKISGC] here?
Its MIC is 2 µM (≈ 5.73 µg/mL).

And the MIC [3]?
Its MIC is 2 µM (≈ 5.73 µg/mL).

And the MIC [4]?
Its MIC is no less than 35 µM.

Which MIC [1] does the source give for `CC(C)C[C@H](NC(=O)[C@H](Cc1cnc[nH]1)NC(=O)[C@H](CCC(N)=O)NC(=O)[C@H](Cc1ccccc1)NC(=O)[C@H](CCC(=O)O)NC(=O)[C@@H](NC(=O)[C@H](CC(C)C)NC(=O)[C@H](CC(C)C)NC(=O)[C@@H](N)Cc1ccc(O)cc1)[C@@H](C)O)C(=O)N[C@@H](Cc1ccccc1)C(=O)N[C@@H](CCCCN)C(=O)O` [YLLTEFQHLFK] here?
The MIC was no less than 86.9 µM.

What does the source list for `NCCCC[C@H](NC(=O)[C@H](Cc1c[nH]c2ccccc12)NC(=O)[C@H](CCC(N)=O)NC(=O)[C@H](Cc1c[nH]c2ccccc12)NC(=O)[C@H](CCCCN)NC(=O)[C@@H](N)CCCCN)C(=O)O` [KKWQWK]?
MIC [5]: 23 µM (≈ 20.8 µg/mL); MIC [6]: 47 µM (≈ 42.4 µg/mL); MIC [3]: 47 µM (≈ 42.4 µg/mL); MIC [7]: 47 µM (≈ 42.4 µg/mL)

Which results are given for `CC[C@H](C)[C@H](NC(=O)[C@H](CC(C)C)NC(=O)[C@H](CC(=O)O)NC(=O)CNC(=O)[C@@H](NC(=O)CN)C(C)C)C(=O)N[C@@H](CCCN=C(N)N)C(=O)N[C@@H](CCCCN)C(=O)N[C@@H](C)C(=O)N[C@H](C(=O)N[C@@H](CO)C(=O)N[C@H](C(=O)N[C@H](C(=O)N[C@@H](CCCCN)C(=O)N[C@@H](CC(N)=O)C(=O)N[C@H](C(=O)N[C@H](C(N)=O)C(C)C)[C@@H](C)CC)[C@@H](C)CC)C(C)C)C(C)C` [GVGDLIRKAVSVIKNIV]?
MIC [8]: 7.02 µM (≈ 12.5 µg/mL); MIC [9]: ≥ 56.1 µM; MIC [10]: 14 µM (≈ 25 µg/mL); MIC [11]: > 56.1 µM; MIC [12]: 28.1 µM (≈ 50 µg/mL); MIC [13]: 7.02 µM (≈ 12.5 µg/mL); MIC [14]: 14 µM (≈ 25 µg/mL); MIC [15]: 1.68 µM (≈ 3 µg/mL)

Which results are given for `CC[C@H](C)[C@H](NC(=O)CNC(=O)CNC(=O)[C@@H](NC(=O)[C@H](Cc1ccccc1)NC(=O)[C@H](CC(C)C)NC(=O)[C@H](CO)NC(=O)[C@H](CC(C)C)NC(=O)[C@@H](NC(=O)CN)[C@@H](C)CC)[C@@H](C)O)C(=O)N[C@@H](CCCCN)C(=O)N[C@@H](C)C(=O)N[C@@H](CC(C)C)C(=O)NCC(=O)N[C@@H](CCCCN)C(=O)N[C@H](C(=O)N[C@@H](CC(C)C)C(=O)N[C@@H](Cc1ccccc1)C(=O)N[C@@H](CCCCN)C(=O)N[C@@H](CCSC)C(=O)N[C@@H](C)C(=O)NCC(=O)N[C@@H](CCCCN)C(=O)N[C@@H](C)C(=O)NCC(=O)N[C@@H](C)C(=O)N[C@@H](CCC(=O)O)C(=O)N[C@@H](Cc1cnc[nH]1)C(=O)N[C@@H](CC(C)C)C(=O)N[C@@H](C)C(=O)N[C@H]1CSSC[C@@H](C(=O)O)NC(=O)[C@H](CCC(N)=O)NC(=O)[C@H](CC(N)=O)NC(=O)[C@H]([C@@H](C)O)NC(=O)[C@H](C)NC(=O)[C@H](CCCCN)NC1=O)[C@@H](C)O` [GILSLFTGGIKALGKTLFKMAGKAGAEHLACKATNQC]?
MIC [2]: 3 µM (≈ 11.2 µg/mL); MIC [3]: 6 µM (≈ 22.5 µg/mL); MIC [4]: ≥ 53 µM

With `CC[C@H](C)[C@H](NC(=O)CNC(=O)[C@H](CO)NC(=O)[C@H](CC(C)C)NC(=O)[C@H](CC(C)C)NC(=O)[C@H](CCCCN)NC(=O)CNC(=O)[C@H](CC(C)C)NC(=O)[C@@H](NC(=O)[C@@H]1CCCN1C(=O)[C@H](CC(C)C)NC(=O)[C@@H](N)Cc1ccccc1)[C@@H](C)CC)C(=O)N[C@@H](CC(C)C)C(N)=O` [FLPILGKLLSGIL] as the compound, how does the MIC [2] read?
The MIC was 15 µM (≈ 20.7 µg/mL).

What about the MIC [3] of the same compound?
Its MIC is greater than 100 µM.

How did the MIC [16] turn out when `CC[C@H](C)[C@H](NC(=O)[C@H](CCCCN)NC(=O)[C@H](CCCCN)NC(=O)[C@H](Cc1ccccc1)NC(=O)[C@H](CC(C)C)NC(=O)[C@H](CCCCN)NC(=O)[C@H](C)NC(=O)[C@@H](N)CCCCN)C(=O)N1CCC[C@H]1C(=O)N[C@@H](CCCCN)C(=O)N[C@@H](Cc1ccccc1)C(=O)N[C@@H](CC(C)C)C(=O)N[C@@H](Cc1cnc[nH]1)C(=O)N[C@@H](CC(C)C)C(=O)N[C@@H](Cc1c[nH]c2ccccc12)C(=O)N[C@@H](CCCCN)C(=O)N[C@@H](CCCCN)C(=O)N[C@@H](Cc1ccccc1)C(N)=O` [KAKLFKKIPKFLHLWKKF] was run?
The MIC was 1 µM (≈ 2.3 µg/mL).

What about the MIC [17] of the same compound?
The MIC was 1 µM (≈ 2.3 µg/mL).

What about the MIC [18] of the same compound?
Its MIC is 1 µM (≈ 2.3 µg/mL).

What about the MIC [19] of the same compound?
The MIC was 2 µM (≈ 4.6 µg/mL).

What about the MIC [20] of the same compound?
The MIC was 2 µM (≈ 4.6 µg/mL).

What about the MIC [21] of the same compound?
Its MIC is 2 µM (≈ 4.6 µg/mL).

How did the MIC [1] turn out when `CC(C)C[C@H](NC(=O)[C@H](Cc1c[nH]c2ccccc12)NC(=O)[C@H](CCCCN)NC(=O)[C@H](CC(C)C)NC(=O)[C@H](Cc1ccccc1)NC(=O)[C@@H](NC(=O)[C@H](CCCCN)NC(=O)[C@@H](N)Cc1ccccc1)[C@@H](C)O)C(=O)N[C@@H](Cc1cnc[nH]1)C(=O)N[C@@H](CCCN=C(N)N)C(=O)N[C@@H](Cc1ccccc1)C(N)=O` [FKTFLKWLHRF] was run?
Its MIC is 15.8 µM (≈ 24 µg/mL).

`CC[C@H](C)[C@H](NC(=O)[C@H](Cc1ccccc1)NC(=O)[C@H](CCCCN)NC(=O)[C@@H](NC(=O)[C@H](Cc1ccccc1)NC(=O)[C@H](CCC(N)=O)NC(=O)[C@H](CCCCN)NC(=O)[C@@H](N)CC(C)C)C(C)C)C(=O)N[C@@H](Cc1cnc[nH]1)C(=O)N[C@@H](CCCN=C(N)N)C(=O)N[C@@H](Cc1ccccc1)C(N)=O` [LKQFVKFIHRF] was tested. Which MIC [1] did it give?
The MIC was 16.4 µM (≈ 24 µg/mL).

For `CC[C@H](C)[C@H](NC(=O)CN)C(=O)N[C@@H](CC(C)C)C(=O)N[C@@H](CC(=O)O)C(=O)N[C@@H](CO)C(=O)N[C@@H](Cc1ccccc1)C(=O)N[C@@H](CCCCN)C(=O)NCC(=O)N[C@H](C(=O)N[C@@H](C)C(=O)N[C@@H](CCCCN)C(=O)NCC(=O)N[C@H](C(=O)N[C@@H](C)C(=O)N[C@@H](CCCCN)C(=O)N[C@@H](CC(=O)O)C(=O)N[C@@H](CC(C)C)C(=O)N[C@@H](C)C(=O)NCC(=O)N[C@@H](CCCCN)C(=O)N[C@@H](CC(C)C)C(=O)N[C@@H](CC(C)C)C(=O)N[C@@H](CC(=O)O)C(=O)N[C@@H](CCCCN)C(=O)N[C@@H](CC(C)C)C(=O)N[C@@H](CCCCN)C(=O)N[C@H]1CSSC[C@@H](C(=O)O)NC(=O)CNC(=O)[C@H]([C@@H](C)O)NC(=O)[C@H]([C@@H](C)CC)NC(=O)[C@H](CCCCN)NC1=O)C(C)C)C(C)C` [GILDSFKGVAKGVAKDLAGKLLDKLKCKITGC], which MIC [2] is on record?
Its MIC is 11 µM (≈ 36.2 µg/mL).

And the MIC [22]?
The MIC was 25 µM (≈ 82.2 µg/mL).

What about the MIC [3] of the same compound?
Its MIC is 4 µM (≈ 13.2 µg/mL).

What about the MIC [7] of the same compound?
Its MIC is 50 µM (≈ 164 µg/mL).

What about the MIC [4] of the same compound?
The MIC was no less than 150 µM.
